Patent US20220395496A1 (Hoffmann-La Roche Inc., priority 2019, published 2022)

Target: T1, human TLR8 (Homo sapiens, UniProt Q9NR97)
T1 sequence (Q9NR97 27-1041): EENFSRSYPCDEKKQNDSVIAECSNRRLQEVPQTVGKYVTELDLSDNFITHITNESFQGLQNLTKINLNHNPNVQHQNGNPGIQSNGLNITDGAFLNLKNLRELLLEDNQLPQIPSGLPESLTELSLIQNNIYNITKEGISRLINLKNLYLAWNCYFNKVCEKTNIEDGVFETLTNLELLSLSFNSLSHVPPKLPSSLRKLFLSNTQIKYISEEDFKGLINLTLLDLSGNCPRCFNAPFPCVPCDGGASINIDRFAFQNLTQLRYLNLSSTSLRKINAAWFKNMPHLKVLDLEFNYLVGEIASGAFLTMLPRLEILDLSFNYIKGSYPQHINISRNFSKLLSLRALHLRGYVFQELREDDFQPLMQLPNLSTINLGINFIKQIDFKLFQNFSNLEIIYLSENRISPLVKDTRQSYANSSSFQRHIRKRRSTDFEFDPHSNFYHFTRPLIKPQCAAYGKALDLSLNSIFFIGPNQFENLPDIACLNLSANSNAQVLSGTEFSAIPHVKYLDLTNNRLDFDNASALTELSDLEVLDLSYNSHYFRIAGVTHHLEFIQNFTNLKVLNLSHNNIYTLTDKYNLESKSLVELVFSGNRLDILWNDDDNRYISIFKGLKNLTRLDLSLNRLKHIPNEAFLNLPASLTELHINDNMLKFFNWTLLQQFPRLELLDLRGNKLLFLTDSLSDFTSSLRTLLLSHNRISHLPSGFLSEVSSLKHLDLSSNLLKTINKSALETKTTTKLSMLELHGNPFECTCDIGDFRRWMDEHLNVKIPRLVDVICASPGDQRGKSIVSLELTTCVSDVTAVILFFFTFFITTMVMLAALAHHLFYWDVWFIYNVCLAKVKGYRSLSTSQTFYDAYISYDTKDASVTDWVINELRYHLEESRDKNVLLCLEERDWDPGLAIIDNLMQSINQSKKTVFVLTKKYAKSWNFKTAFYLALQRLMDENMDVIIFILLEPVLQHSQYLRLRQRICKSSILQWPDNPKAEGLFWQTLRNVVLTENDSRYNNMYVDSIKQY
Assay: HEK293-Blue-hTLR-8 cells assay (SEAP reporter, R848 stimulation)
Type: cell-based
Settings: HEK293-Blue-hTLR8 cells, R848, 20 hrs; lowest tested concentration 0.0032
Description: The following tests were carried out in order to determine the activity of the compounds of this invention in HEK293-Blue-hTLR-7/8/9 cells assay.
HEK293-Blue-hTLR-8 Cells Assay:
A stable HEK293-Blue-hTLR-8 cell line was purchased from InvivoGen (Cat. #: hkb-htlr8, San Diego, Calif., USA). These cells were originally designed for studying the stimulation of human TLR8 by monitoring the activation of NF-κB. A SEAP (secreted embryonic alkaline phosphatase) reporter gene was placed under the control of the IFN-β minimal promoter fused to five NF-κB and AP-1-binding sites. The SEAP was induced by activating NF-κB and AP-1 via stimulating HEK-Blue hTLR8 cells with TLR8 ligands. Therefore the reporter expression was declined by TLR8 antagonist under the stimulation of a ligand, such as R848, for incubation of 20 hrs. The cell culture supernatant SEAP reporter activity was determined using QUANTI-Blue™kit (Cat. #: rep-qb1, Invivogen, San Diego, Calif., USA) at a wavelength of 640 nm, a detection medium that turns purple or blue in the presence of alkaline phosphatase.
HEK293-Blue-hTLR8 cells were incubated at a density of […] cells/mL in a volume of 170 μL in a 96-well plate in Dulbecco's Modified Eagle's medium (DMEM) containing 4.5 g/L glucose, 50 U/mL penicillin, […], […], 2 mM L-glutamine, 10% (v/v) heat-inactivated fetal bovine serum with addition of 20 μL test compound in a serial dilution in the presence of final DMSO at 1% and 10 μL of 60 uM R848 in above DMEM, perform incubation under 37° C. in a CO2 incubator for 20 hrs. Then 20 μL of the supernatant from each well was incubated with 180 μL Quanti-blue substrate solution at 37° C. for 2 hrs and the absorbance was read at 620˜655 nm using a spectrophotometer. The signalling pathway that TLR8 activation leads to downstream NF-κB activation has been widely accepted, and therefore similar reporter assay was modified for evaluating TLR8 antagonist.

Row | IC50 [nM] | SMILES
1 | < 3.2 | C[C@H]1C[C@@H](N2CCc3cc(N4CCNCC4)ccc3C2)CN(c2ccc(C#N)c3ncccc23)C1 (relative stereo) [Example 24, 5-[cis-3-methyl-5-(6-piperazin-1-yl-3,4-dihydro-1H-isoquinolin-2-yl)-1-piperidyl]quinoline-8-carbonitrile]
2 | < 3.2 | C[C@H]1C[C@@H](NCc2ccc(N3CCNCC3)cc2)CN(c2ccc(C#N)c3ncccc23)C1 [Example 1, 5-[(3S,5R)-3-methyl-5-[(4-piperazin-1-ylphenyl)methylamino]1-piperidyl]quinoline-8-carbonitrile]
3 | 6 | C[C@H]1C[C@@H](NCc2ccc(C3CCNCC3)cc2)CN(c2ccc(C#N)c3ncccc23)C1 [Example 2, 5-[(3S,5R)-3-methyl-5-[[4-(4-piperidyl)phenyl]methylamino]-1-piperidyl]quinoline-8-carbonitrile]
4 | 4 | C[C@H]1C[C@@H](NCc2ccc(N3CCNCC3)cc2)CN(c2ccc(C#N)c3nccnc23)C1 [Example 3, 8-[(3S,5R)-3-methyl-5-[(4-piperazin-1-ylphenyl)methylamino]-1-piperidyl]quinoxaline-5-carbonitrile]
5 | < 3.2 | C[C@H]1C[C@@H](NCc2ccc(N3CCNCC3)cc2F)CN(c2ccc(C#N)c3ncccc23)C1 [Example 4, 5-[(3R,58)-3-[(2-fluoro-4-piperazin-1-yl-phenyl)methylamino]-5-methyl-1-piperidyl]quinoline-8-carbonitrile]
6 | 6 | C[C@H]1C[C@@H](NCc2ccc(N3CCNCC3)cn2)CN(c2ccc(C#N)c3ncccc23)C1 [Example 5, 5-[(3S,5R)-3-methyl-5-[(5-piperazin-1-yl-2-pyridyl)methylamino]-1-piperidyl]quinoline-8-carbonitrile]
7 | 4 | C[C@H]1C[C@@H](NCc2cccc(N3CCN(C)CC3)c2)CN(c2ccc(C#N)c3ncccc23)C1 [Example 6, 5-[(3S,5R)-3-methyl-5-[[3-(4-methylpiperazin-1-yl)phenyl]methylamino]-1-piperidyl]quinoline-8-carbonitrile]
8 | < 3.2 | C[C@H]1C[C@@H](NCc2ccc(N3CCN(C)CC3)cc2)CN(c2ccc(C#N)c3ncccc23)C1 [Example 7, 5-[(3S,5R)-3-methyl-5-[[4-(4-methylpiperazin-1-yl)phenyl]methylamino]-1-piperidyl]quinoline-8-carbonitrile]
9 | 9 | C[C@H]1C[C@@H](NCc2cccc(N3CCNCC3)c2)CN(c2ccc(C#N)c3ncccc23)C1 [Example 8, 5-[(3S,5R)-3-methyl-5-[(3-piperazin-1-ylphenyl)methylamino]-1-piperidyl]quinoline-8-carbonitrile]
10 | 5 | C[C@H]1C[C@@H](N(C)Cc2ccc(N3CCNCC3)cc2)CN(c2ccc(C#N)c3ncccc23)C1 [Example 9, 5-[(3S,5R)-3-methyl-5-[methyl-[(4-piperazin-1-ylphenyl)methyl]amino]-1-piperidyl]quinoline-8-carbonitrile]
11 | < 3.2 | C[C@H]1C[C@@H](NCc2ccc(N3CCNCC3)nc2)CN(c2ccc(C#N)c3ncccc23)C1 [Example 10]
12 | < 3.2 | C[C@H]1C[C@@H](NCc2ccc3c(c2)CCNC3)CN(c2ccc(C#N)c3ncccc23)C1 [Example 11, 5-[(3S,5R)-3-methyl-5-(1,2,3,4-tetrahydroisoquinolin-6-ylmethylamino)-1-piperidyl]quinoline-8-carbonitrile]
13 | < 3.2 | C[C@H]1C[C@@H](N2Cc3ccc(N4CCNCC4)cc3C2)CN(c2ccc(C#N)c3ncccc23)C1 [Example 12, 5-[(3S,5R)-3-methyl-5-(5-piperazin-1-ylisoindolin-2-yl)-1-piperidyl]quinoline-8-carbonitrile]
14 | 6 | C[C@H]1C[C@@H](NCc2ccc(N3CCC(N)C3)cc2)CN(c2ccc(C#N)c3ncccc23)C1 (stereo partly drawn) [Example 13, 5-[(3R,5S)-3-[[4-(3-aminopyrrolidin-1-yl)phenyl]methylamino]-5-methyl-1-piperidyl]quinoline-8-carbonitrile]
15 | 10 | Cc1cc(-c2ccc(CN[C@@H]3C[C@H](C)CN(c4ccc(C#N)c5ncccc45)C3)cc2)cc(C)n1 [Example 15, 5-[(3R,5S)-3-[[4-(2,6-dimethyl-4-pyridyl)phenyl]methylamino]-5-methyl-1-piperidyl]quinoline-8-carbonitrile]
16 | < 3.2 | C[C@H]1C[C@@H](NCc2cnc(N3CCN(C)CC3)nc2)CN(c2ccc(C#N)c3ncccc23)C1 [Example 16, 5-[(3S,5R)-3-methyl-5-[[2-(4-methylpiperazin-1-yl)pyrimidin-5-yl]methylamino]-1-piperidyl]quinoline-8-carbonitrile]
17 | < 3.2 | C[C@H]1C[C@@H](NCc2cnc(N3CCNCC3)nc2)CN(c2ccc(C#N)c3ncccc23)C1 [Example 17, 5-[(3S,5R)-3-methyl-5-[(2-piperazin-1-ylpyrimidin-5-yl)methylamino]-1-piperidyl]quinoline-8-carbonitrile]
18 | < 3.2 | C[C@H]1C[C@@H](NCc2ccc(N3CCN(C)CC3)cn2)CN(c2ccc(C#N)c3ncsc23)C1 [Example 18, 7-[(3S,5R)-3-methyl-5-[[5-(4-methylpiperazin-1-yl)-2-pyridyl]methylamino]-1-piperidyl]-1,3-benzothiazole-4-carbonitrile]
19 | 42 | C[C@H]1C[C@@H](NCc2ccc(N3CCNCC3)cc2)CN(c2ccc(C#N)n3nccc23)C1 [Example 21, 4-[(3S,5R)-3-methyl-5-[(4-piperazin-1-ylphenyl)methylamino]-1-piperidyl]pyrazolo[1,5-a]pyridine-7-carbonitrile]
20 | 5 | C[C@H]1C[C@@H](NCc2ccc(N3CCNCC3)cc2)CN(c2ccc(Cl)c3ncccc23)C1 [Example 22, (3R,5S)-1-(8-chloro-5-quinolyl)-5-methyl-N-[(4-piperazin-1-ylphenyl)methyl]piperidin-3-amine]
21 | 4 | C[C@H]1C[C@@H](N2Cc3cc(N4CCNCC4)cnc3C2)CN(c2ccc(C#N)c3ncccc23)C1 [Example 23, 5-[(3S,5R)-3-methyl-5-(3-piperazin-1-yl-5,7-dihydropyrrolo[3,4-b]pyridin-6-yl)-1-piperidyl]quinoline-8-carbonitrile]
22 | < 3.2 | C[C@H]1C[C@@H](NCc2ncc(N3CCNCC3)cn2)CN(c2ccc(C#N)c3ncccc23)C1 [Example 25, 5-[(3S,5R)-3-methyl-5-[(5-piperazin-1-ylpyrimidin-2-yl)methylamino]-1-piperidyl]quinoline-8-carbonitrile]
23 | ≤ 3 | CC(N[C@@H]1C[C@H](C)CN(c2ccc(C#N)c3ncccc23)C1)c1ccc(N2CCNCC2)cc1 (stereo partly drawn) [Example 26, 5-[(3S,5R)-3-methyl-5-[1-(4-piperazin-1-ylphenyl)ethylamino]-1-piperidyl]quinoline-8-carbonitrile]
24 | < 3.2 | C[C@H]1C[C@@H](NCc2cnc(N3CCN[C@H](C)C3)nc2)CN(c2ccc(C#N)c3ncccc23)C1 [Example 28, 5-[(3S,5R)-3-methyl-5-[[2-[(3R)-3-methylpiperazin-1-yl]pyrimidin-5-yl]methylamino]-1-piperidyl]quinoline-8-carbonitrile]
